Source: patent US4822799A, “Pyrazolopyridine analogs of mevalonolactone and derivatives thereof useful for inhibiting cholesterol biosynthesis in mammals” (Sandoz Pharm. Corp., priority 1988, dated 1989)

What was measured:
[1] = test system: 3β-hydroxysterol synthesis; assay: Test B. In Vivo Cholesterol Biosynthesis Inhibition Test; conditions: Rattus norvegicus, po, rats, orally administered, 0.1-200 mg/kg. body weight, read-out: ED50 (50% inhibition of 3β-hydroxysterol synthesis)
Protocol: Test B. In Vivo Cholesterol Biosynthesis Inhibition Test:
In this test the rats are orally administered the test substance (compound of Formula I) at a dose of 0.1-200 mg/kg. body weight. The obtained ED50 is the dose of the test substance observed or calculated to produce a 50% inhibition of 3β-hydroxysterol synthesis.

[2] = biological target: T1, 3-hydroxy-3-methylglutaryl coenzyme A (HMG-CoA) reductase (Rattus norvegicus, UniProt P51639); assay: Test A. In Vitro Microsomal Assay of HMG-CoA Reductase Inhibition; type: biochemical; conditions: test substance 0.001-2,000 μmolar, read-out: IC50 (50% inhibition of HMG-CoA reductase activity)
T1 construct: from tissue; host or cells: liver microsomes of Sprague-Dawley rats (tissue and species from own knowledge of the cited documents)
T1 sequence (P51639 1-887): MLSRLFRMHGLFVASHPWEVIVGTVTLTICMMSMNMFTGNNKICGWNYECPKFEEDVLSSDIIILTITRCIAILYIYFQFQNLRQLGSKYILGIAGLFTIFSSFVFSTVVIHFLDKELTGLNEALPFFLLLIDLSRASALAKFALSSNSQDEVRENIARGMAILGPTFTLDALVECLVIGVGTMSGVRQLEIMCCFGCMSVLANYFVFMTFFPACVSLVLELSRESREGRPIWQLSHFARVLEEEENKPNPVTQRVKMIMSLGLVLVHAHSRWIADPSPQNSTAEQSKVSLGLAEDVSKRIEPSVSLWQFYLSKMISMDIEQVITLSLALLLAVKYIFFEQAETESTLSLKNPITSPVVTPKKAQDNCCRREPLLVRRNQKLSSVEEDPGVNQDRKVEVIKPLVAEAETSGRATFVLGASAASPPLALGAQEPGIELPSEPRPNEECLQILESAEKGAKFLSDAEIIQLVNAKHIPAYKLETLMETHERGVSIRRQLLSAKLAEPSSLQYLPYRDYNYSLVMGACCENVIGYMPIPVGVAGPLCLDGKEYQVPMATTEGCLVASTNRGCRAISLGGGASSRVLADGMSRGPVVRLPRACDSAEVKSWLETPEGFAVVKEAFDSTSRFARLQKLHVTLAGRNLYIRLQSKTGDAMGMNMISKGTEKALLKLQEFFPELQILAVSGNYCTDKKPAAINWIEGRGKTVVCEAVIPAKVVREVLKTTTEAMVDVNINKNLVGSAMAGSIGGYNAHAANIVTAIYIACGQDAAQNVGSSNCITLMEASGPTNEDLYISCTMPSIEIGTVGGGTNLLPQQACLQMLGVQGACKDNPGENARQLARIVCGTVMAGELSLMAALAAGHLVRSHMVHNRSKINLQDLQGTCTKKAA
Protocol: Test A. In Vitro Microsomal Assay of HMG-CoA Reductase Inhibition:
This test is carried out precisely as described in column 53 of U.S. Pat. No. 4,613,610 and on page 30 of World (PCT) Published patent application No. 84/02131, both of which are hereby incorporated by reference as if set forth herein in their entirety. The concentration of the test substance (compound of Formula I) in the assay system is 0.001-2,000 μmolar. The obtained IC50 is the concentration of the test substance in the assay system observed or calculated to produce a 50% inhibition of HMG-CoA reductase activity.

`CC[C@H](C)C(=O)O[C@H]1CCC=C2C=C[C@H](C)[C@H](CC[C@@H]3C[C@@H](O)CC(=O)O3)[C@H]21` [Compactin] showed an ED50 [1] of 3.5 mg/kg.

In the case of `Cc1nn(C)c2nc(C(C)C)c(/C=C/[C@@H](O)C[C@@H](O)CC(=O)O)c(-c3ccc(F)cc3)c12` [Example 2, Sodium (3R,5S)-(E)-3,5-dihydroxy-7-[1',3'-dimethyl-4'-(4"-fluorophenyl)-6'-(1"-methylethyl)-1H-pyrazolo[3,4-b]pyrid-5'-yl]hept-6-enoate], the IC50 [2] is reported as 10 nM.

`CC[C@H](C)C(=O)O[C@H]1C[C@@H](C)C=C2C=C[C@H](C)[C@H](CC[C@@H]3C[C@@H](O)CC(=O)O3)[C@H]21` [Mevinolin] showed an ED50 [1] of 0.38 mg/kg.
